Where two headings read alike, the source gives them in different places. Numbered stars: 1 amine (or outer) side, 2 acyl side, 3 side chain; on linkers, the order of the positions; unused ones are H or OH. Square brackets hold non-standard residues; d marks the D form. Side chains are listed from the residue outwards. Peptide text beside a SMILES is read from it. * marks the point of attachment. C20 diacid = O=C(O)CCCCCCCCCCCCCCCCCCC(=O)*; γGlu = O=C(O)[C@H](CCC(=O)[*:2])N[*:1]; AEEA = NCCOCCOCC(=O)O; Aib = CC(C)(N)C(=O)O
Columns and labels:
GLP1R = GLP1R (Homo sapiens, UniProt P43220); experiment: hGLP1R potency, cAMP accumulation in CHO-K1 cells stably overexpressing hGLP1R; assay type: cell-based; set-up: host or cells: CHO-K1; settings: for SCTR EC50/GLP1R EC50 ratio: selectivity for hGLP1R over hSCTR, cAMP accumulation in CHO-K1 cells; for Selectivity: SCTR EC50/GLP1R EC50 ratio
Chain of GLP1R (P43220 24-463): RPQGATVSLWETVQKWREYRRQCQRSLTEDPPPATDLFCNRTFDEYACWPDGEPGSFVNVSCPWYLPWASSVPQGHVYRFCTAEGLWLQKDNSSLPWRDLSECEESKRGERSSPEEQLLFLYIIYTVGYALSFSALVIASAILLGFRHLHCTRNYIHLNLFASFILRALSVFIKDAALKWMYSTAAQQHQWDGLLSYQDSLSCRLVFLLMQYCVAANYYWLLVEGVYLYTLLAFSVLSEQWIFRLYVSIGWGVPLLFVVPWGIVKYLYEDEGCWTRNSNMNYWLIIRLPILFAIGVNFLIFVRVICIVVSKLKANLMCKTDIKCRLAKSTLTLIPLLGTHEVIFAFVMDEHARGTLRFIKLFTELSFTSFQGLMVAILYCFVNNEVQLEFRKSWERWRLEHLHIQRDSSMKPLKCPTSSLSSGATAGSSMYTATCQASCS
How it was run: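 Potency reflects cAMP accumulation measured by time-resolved fluorescence energy transfer after a 30 min room-temperature stimulation in IBMX-containing (0.5 mM) DPBS with casein. Purified peptides were tested in duplicate over eleven threefold dilutions, and EC50 was obtained from sigmoid concentration-response fitting.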

[1] = Turbidity of crude library peptides (absorbance at 600 nm); assay type: physicochemical; settings: Physical stability of peptides
How it was run: (§1)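 Values reflect mean ThT emission (ex 450, em 480 nm) over 72 h at 40° C, read every 10 min after 5 min shaking at 700 rpm, plus a single initial absorbance at 600 nm for turbidity. Peptides were at 267 μM, pH 4.0 acetate or pH 7.0 phosphate (50 mM), with 4 μM ThT.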

[2] = Fibril formation of crude library peptides (Thioflavin T); assay type: physicochemical; set-up: key: average ThT fluorescence emission at 480 nm (ex 450 nm), raw units; settings: Physical stability of peptides
How it was run: as §1

SCTR = SCTR (Homo sapiens, UniProt P47872); experiment: hSCTR potency, cAMP accumulation in CHO-K1 cells stably overexpressing hSCTR; assay type: cell-based; set-up: alternatively Euroscreen ES-712-AF; FAST-0161L; host or cells: CHO-K1
Chain of SCTR (P47872 23-440): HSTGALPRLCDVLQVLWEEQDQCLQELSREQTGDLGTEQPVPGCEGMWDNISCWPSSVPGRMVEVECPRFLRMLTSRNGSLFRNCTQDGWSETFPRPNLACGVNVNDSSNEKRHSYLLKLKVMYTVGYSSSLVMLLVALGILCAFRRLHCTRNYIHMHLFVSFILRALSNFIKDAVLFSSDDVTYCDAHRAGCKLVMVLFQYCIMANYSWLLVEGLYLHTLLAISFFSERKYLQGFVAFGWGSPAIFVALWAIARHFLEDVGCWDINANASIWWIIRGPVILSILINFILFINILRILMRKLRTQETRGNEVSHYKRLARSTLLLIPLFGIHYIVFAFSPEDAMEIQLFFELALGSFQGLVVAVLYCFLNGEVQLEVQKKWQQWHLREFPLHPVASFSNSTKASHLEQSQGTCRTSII
How it was run: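 Potency reflects cAMP accumulation after 30 min agonist exposure at room temperature in hSCTR-expressing CHO-K1 cells, with 0.5 mM IBMX present to block phosphodiesterase. EC50 was derived by nonlinear regression.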

[3] = cAMP accumulation, CHO-K1 cells overexpressing hGLP1R, read-out: hGLP1R pEC50 (converted)
[4] = cAMP accumulation, CHO-K1 cells overexpressing hSCTR, read-out: hSCTR pEC50 (converted)
[5] = cAMP accumulation, CHO-K1 cells overexpressing hGLP1R, read-out: pEC50 hGLPR1 (converted)
[6] = cAMP accumulation, CHO-K1 cells overexpressing hSCTR, read-out: pEC50 hSCTR (converted)

Row | Structure (SMILES) | EC50 (GLP1R; [3]) [nM] | SCTR EC50/GLP1R EC50 ratio (GLP1R) | Turbidity (pH 7) [1] | Fibril formation [2] | EC50 (SCTR; [4]) [nM] | EC50 (GLP1R) [nM] | Selectivity (GLP1R) | EC50 (SCTR) [nM] | EC50 (GLP1R; [5]) [nM] | EC50 (SCTR; [6]) [nM]
1 | CC[C@H](C)[C@H](NC(=O)[C@H](Cc1ccccc1)NC(=O)[C@H](CCCNC(=N)N)NC(=O)[C@H](CCC(N)=O)NC(=O)[C@H](CC(C)C)NC(=O)[C@H](C)NC(=O)[C@H](C)NC(=O)CNC(=O)[C@H](CCC(=O)O)NC(=O)[C@H](CC(C)C)NC(=O)[C@H](CC(C)C)NC(=O)[C@H](Cc1ccccc1)NC(=O)[C@H](CO)NC(=O)[C@@H](NC(=O)[C@H](CC(=O)O)NC(=O)[C@H](CO)NC(=O)[C@@H](NC(=O)[C@H](Cc1ccccc1)NC(=O)[C@@H](NC(=O)CNC(=O)[C@H](CCC(=O)O)NC(=O)C(C)(C)NC(=O)[C@@H](N)Cc1c[nH]cn1)[C@@H](C)O)[C@@H](C)O)[C@@H](C)CC)C(=O)N[C@@H](CCC(N)=O)C(=O)N[C@@H](Cc1c[nH]c2ccccc12)C(=O)N[C@@H](CC(C)C)C(=O)N[C@H](C(N)=O)C(C)C [compound 117] (H-H[Aib]EGTFTSDISFLLEGAALQRFIQWLV-NH2) | 0.01 | 19436 | 0.50 | 238242 | 200 | – | – | – | – | –
2 | CC(C)C[C@H](NC(=O)[C@H](Cc1ccccc1)NC(=O)[C@H](CCCNC(=N)N)NC(=O)[C@H](CCC(N)=O)NC(=O)[C@H](C)NC(=O)[C@H](C)NC(=O)[C@H](C)NC(=O)[C@@H](NC(=O)[C@H](CCC(=O)O)NC(=O)[C@H](CCCCNC(=O)COCCOCCNC(=O)COCCOCCNC(=O)CC[C@H](NC(=O)CCCCCCCCCCCCCCCCCCC(=O)O)C(=O)O)NC(=O)[C@H](CC(C)C)NC(=O)[C@@H](NC(=O)[C@H](CO)NC(=O)[C@@H](NC(=O)[C@H](CC(=O)O)NC(=O)[C@H](CO)NC(=O)[C@@H](NC(=O)[C@H](Cc1ccccc1)NC(=O)[C@@H](NC(=O)CNC(=O)[C@H](CCC(=O)O)NC(=O)C(C)(C)NC(=O)[C@@H](N)Cc1c[nH]cn1)[C@@H](C)O)[C@@H](C)O)C(C)C)C(C)C)[C@@H](C)O)C(=O)N[C@@H](CCC(=O)O)C(=O)N[C@@H](Cc1c[nH]cn1)C(=O)N[C@@H](CC(C)C)C(=O)N[C@H](C(N)=O)C(C)C [compound 62] (H-H[Aib]EGTFTSDVSVLK([AEEA-AEEA-γGlu-C20 diacid])ETAAAQRFLEHLV-NH2) | – | – | 0.08 | 21979 | – | 0.1 | 18608 | 2000 | – | –
3 | CC[C@H](C)[C@H](NC(=O)[C@H](Cc1ccccc1)NC(=O)[C@H](CCCNC(=N)N)NC(=O)[C@H](CCC(N)=O)NC(=O)[C@H](CC(C)C)NC(=O)[C@H](C)NC(=O)[C@H](C)NC(=O)CNC(=O)[C@H](CCC(=O)O)NC(=O)[C@H](CC(C)C)NC(=O)[C@H](CC(C)C)NC(=O)[C@H](CCCNC(=N)N)NC(=O)[C@H](CO)NC(=O)[C@@H]1CCCN1C(=O)[C@H](CC(=O)O)NC(=O)[C@H](CO)NC(=O)[C@@H](NC(=O)[C@H](Cc1ccccc1)NC(=O)[C@@H](NC(=O)CNC(=O)[C@H](CCC(=O)O)NC(=O)C(C)(C)NC(=O)[C@@H](N)Cc1c[nH]cn1)[C@@H](C)O)[C@@H](C)O)C(=O)N[C@@H](CCC(N)=O)C(=O)N[C@@H](Cc1c[nH]c2ccccc12)C(=O)N[C@@H](CC(C)C)C(=O)N[C@H](C(N)=O)C(C)C [compound 124] (H-H[Aib]EGTFTSDPSRLLEGAALQRFIQWLV-NH2) | 2.51 | 2086 | 0.12 | 1370 | 5010 | – | – | – | – | –
4 | CC(C)C[C@H](NC(=O)[C@H](C)NC(=O)[C@H](C)NC(=O)[C@H](CCC(=O)O)NC(=O)[C@H](CCC(=O)O)NC(=O)[C@H](CCCCNC(=O)COCCOCCNC(=O)COCCOCCNC(=O)CC[C@H](NC(=O)CCCCCCCCCCCCCCCCCCC(=O)O)C(=O)O)NC(=O)[C@H](CC(C)C)NC(=O)[C@H](Cc1ccc(O)cc1)NC(=O)[C@H](CO)NC(=O)[C@@H](NC(=O)[C@H](CC(=O)O)NC(=O)[C@H](CO)NC(=O)[C@@H](NC(=O)[C@H](Cc1ccccc1)NC(=O)[C@@H](NC(=O)CNC(=O)[C@H](CCC(=O)O)NC(=O)C(C)(C)NC(=O)[C@@H](N)Cc1c[nH]cn1)[C@@H](C)O)[C@@H](C)O)C(C)C)C(=O)N[C@@H](CCC(N)=O)C(=O)N[C@@H](CCCNC(=N)N)C(=O)N[C@@H](Cc1ccccc1)C(=O)N[C@@H](CC(C)C)C(=O)N[C@@H](CCC(=O)O)C(=O)N[C@@H](Cc1c[nH]cn1)C(=O)N[C@@H](CC(C)C)C(=O)N[C@H](C(N)=O)C(C)C [compound 137] (H-H[Aib]EGTFTSDVSYLK([AEEA-AEEA-γGlu-C20 diacid])EEAALQRFLEHLV-NH2) | 0.00794 | 9970 | 0.09 | 4019 | 79.4 | – | – | – | – | –
5 | CC(C)C[C@H](NC(=O)[C@H](Cc1ccccc1)NC(=O)[C@H](CCCNC(=N)N)NC(=O)[C@H](CCC(N)=O)NC(=O)[C@H](C)NC(=O)[C@H](C)NC(=O)[C@H](C)NC(=O)[C@H](Cc1ccccc1)NC(=O)[C@H](CCC(=O)O)NC(=O)[C@H](CCCCNC(=O)COCCOCCNC(=O)COCCOCCNC(=O)CC[C@H](NC(=O)CCCCCCCCCCCCCCCCCCC(=O)O)C(=O)O)NC(=O)[C@H](CC(C)C)NC(=O)[C@@H](NC(=O)[C@H](CO)NC(=O)[C@@H](NC(=O)[C@H](CC(=O)O)NC(=O)[C@H](CO)NC(=O)[C@@H](NC(=O)[C@H](Cc1ccccc1)NC(=O)[C@@H](NC(=O)CNC(=O)[C@H](CCC(=O)O)NC(=O)C(C)(C)NC(=O)[C@@H](N)Cc1c[nH]cn1)[C@@H](C)O)[C@@H](C)O)C(C)C)C(C)C)C(=O)N[C@@H](CCC(=O)O)C(=O)N[C@@H](Cc1c[nH]cn1)C(=O)N[C@@H](CC(C)C)C(=O)N[C@H](C(N)=O)C(C)C [compound 29] (H-H[Aib]EGTFTSDVSVLK([AEEA-AEEA-γGlu-C20 diacid])EFAAAQRFLEHLV-NH2) | – | – | 0.08 | 28786 | – | – | 8541 | – | 0.1 | 794
6 | CC(C)C[C@H](NC(=O)[C@H](Cc1ccccc1)NC(=O)[C@H](CCCNC(=N)N)NC(=O)[C@H](CCC(N)=O)NC(=O)[C@H](CCC(N)=O)NC(=O)[C@H](C)NC(=O)[C@H](C)NC(=O)[C@@H](NC(=O)[C@H](CCC(=O)O)NC(=O)[C@H](CCCCNC(=O)COCCOCCNC(=O)COCCOCCNC(=O)CC[C@H](NC(=O)CCCCCCCCCCCCCCCCCCC(=O)O)C(=O)O)NC(=O)[C@H](CC(C)C)NC(=O)[C@H](Cc1ccc(O)cc1)NC(=O)[C@H](CO)NC(=O)[C@@H](NC(=O)[C@H](CC(=O)O)NC(=O)[C@H](CO)NC(=O)[C@@H](NC(=O)[C@H](Cc1ccccc1)NC(=O)[C@@H](NC(=O)CNC(=O)[C@H](CCC(=O)O)NC(=O)C(C)(C)NC(=O)[C@@H](N)Cc1c[nH]cn1)[C@@H](C)O)[C@@H](C)O)C(C)C)[C@@H](C)O)C(=O)N[C@@H](CCC(=O)O)C(=O)N[C@@H](Cc1c[nH]cn1)C(=O)N[C@@H](CC(C)C)C(=O)N[C@H](C(N)=O)C(C)C [compound 58] (H-H[Aib]EGTFTSDVSYLK([AEEA-AEEA-γGlu-C20 diacid])ETAAQQRFLEHLV-NH2) | – | – | 0.08 | 22040 | – | – | 35408 | – | 0.0251 | 1000

From patent US20260201008A1, “SECRETIN-DERIVED GLP1R SELECTIVE AGONISTS” (GUBRA A/S, priority 2023, published 2026)
